Test results taken from paper PMC9441068, “Novel eIF4A1 inhibitors with anti‐tumor activity in lymphoma” (Molecular Medicine, 2022).
pIC50: −log10 of the molar value.

Legend:
Format in all cases: biochemical
human eIF4A1 [1] = molecular target: T1, human eIF4A1 (Homo sapiens, UniProt P60842); test: malachite green phosphate release (RNA-dependent ATPase) assay; also Cy3/Cy5 RNA unwinding assay (IC50 […])
human eIF4A1 [2] = molecular target: T1, human eIF4A1; test: malachite green phosphate release (RNA-dependent ATPase) assay
human eIF4A1 [3] = molecular target: T1, human eIF4A1; test: malachite green phosphate release (RNA-dependent ATPase) assay; also Cy3/Cy5 RNA unwinding assay (IC50 […]); remark: listed apart in the source

T1 sequence (P60842 2-406): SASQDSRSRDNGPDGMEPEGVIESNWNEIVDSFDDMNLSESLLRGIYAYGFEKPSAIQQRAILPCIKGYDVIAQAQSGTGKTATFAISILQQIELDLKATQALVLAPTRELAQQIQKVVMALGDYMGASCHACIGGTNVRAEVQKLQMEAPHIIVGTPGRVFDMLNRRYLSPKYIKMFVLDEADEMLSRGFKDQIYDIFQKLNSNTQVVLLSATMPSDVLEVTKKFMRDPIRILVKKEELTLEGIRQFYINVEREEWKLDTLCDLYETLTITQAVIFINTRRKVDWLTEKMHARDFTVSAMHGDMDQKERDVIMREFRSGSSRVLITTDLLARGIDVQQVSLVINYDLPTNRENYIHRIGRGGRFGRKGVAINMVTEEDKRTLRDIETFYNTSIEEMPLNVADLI

Row | Compound | pIC50 (human eIF4A1 [2]) | also measured
1 | CC(=NNC(=O)c1nnn(-c2nonc2N)c1CSc1nncn1C)c1ccccc1O [RBF197] |  | pIC50 (human eIF4A1 [1]): 10.26
2 | CC(=NNC(=O)c1nnn(-c2nonc2N)c1CSc1nncn1C)c1ccccc1O [RBF203] | 9.68 | 
3 | CC(=NNC(=O)c1nnn(-c2nonc2N)c1CSc1nncn1C)c1cccc(O)c1 [RBF98] | 5.52 | 
4 | Cn1cnnc1SCc1c(C(=O)NN=Cc2ccccc2O)nnn1-c1nonc1N [RBF208] |  | pIC50 (human eIF4A1 [3]): 10.13
